SMILES strings stand for the structures. Active and inactive are the calls of the source. The rule behind the calls is not given here.

The series has as its system CCRIS mutagenicity, Ames/micronucleus/aberration tests. The series can be described thus: CCRIS mutagenicity studies.
Setting [1] is: Test System: AMES SALMONELLA TYPHIMURIUM, Strain/Indicator: TA98, Metabolic Activation: NONE, Method: PREINCUBATION
Setting [2] is: Test System: AMES SALMONELLA TYPHIMURIUM, Strain/Indicator: TA100, Metabolic Activation: NONE, Method: PREINCUBATION
Setting [3] is: Test System: AMES SALMONELLA TYPHIMURIUM, Strain/Indicator: TA102, Metabolic Activation: NONE, Method: PREINCUBATION
[4] abbreviates: Test System: AMES SALMONELLA TYPHIMURIUM, Strain/Indicator: TA100, Metabolic Activation: NONE, Method: STANDARD PLATE.

As to `O=C=NCCCCCCN=C=O`, the mutagenic call was “inactive; negative” (Test System: AMES SALMONELLA TYPHIMURIUM, Strain/Indicator: TA98, Metabolic Activation: NONE, Method: DESICCATOR); “inactive; negative” under setting [1]; “inactive; negative” (Test System: AMES SALMONELLA TYPHIMURIUM, Strain/Indicator: TA98, Metabolic Activation: RAT LIVER S-9, AROCLOR 1254 (10%), Method: DESICCATOR); “inactive; negative” (Test System: AMES SALMONELLA TYPHIMURIUM, Strain/Indicator: TA98, Metabolic Activation: RAT, LIVER, S-9, SODIUM PHENOBARBITAL AND 5,6-BENZOFLAVONE, Method: PREINCUBATION); “inactive; negative” (Test System: AMES SALMONELLA TYPHIMURIUM, Strain/Indicator: TA100, Metabolic Activation: NONE, Method: DESICCATOR); “inactive; negative” under setting [2]. For the same compound, the mutagenic call (Test System: AMES SALMONELLA TYPHIMURIUM, Strain/Indicator: TA100, Metabolic Activation: RAT LIVER S-9, AROCLOR 1254 (10%), Method: DESICCATOR) was “inactive; negative”; the mutagenic call (Test System: AMES SALMONELLA TYPHIMURIUM, Strain/Indicator: TA100, Metabolic Activation: RAT, LIVER, S-9, SODIUM PHENOBARBITAL AND 5,6-BENZOFLAVONE, Method: PREINCUBATION) is “inactive; negative”; the mutagenic call under setting [3] was “inactive; negative”; the mutagenic call (Test System: AMES SALMONELLA TYPHIMURIUM, Strain/Indicator: TA102, Metabolic Activation: RAT, LIVER, S-9, SODIUM PHENOBARBITAL AND 5,6-BENZOFLAVONE, Method: PREINCUBATION) is “inactive; negative”; the mutagenic call (Test System: AMES SALMONELLA TYPHIMURIUM, Strain/Indicator: TA104, Metabolic Activation: NONE, Method: PREINCUBATION) was “inactive; negative”; the mutagenic call (Test System: AMES SALMONELLA TYPHIMURIUM, Strain/Indicator: TA104, Metabolic Activation: RAT, LIVER, S-9, SODIUM PHENOBARBITAL AND 5,6-BENZOFLAVONE, Method: PREINCUBATION) was “inactive; negative”. Also, the mutagenic call runs as follows: (Test System: AMES SALMONELLA TYPHIMURIUM, Strain/Indicator: TA1535, Metabolic Activation: NONE, Method: DESICCATOR) “inactive; negative”; (Test System: AMES SALMONELLA TYPHIMURIUM, Strain/Indicator: TA1535, Metabolic Activation: NONE, Method: PREINCUBATION) “inactive; negative”; (Test System: AMES SALMONELLA TYPHIMURIUM, Strain/Indicator: TA1535, Metabolic Activation: RAT LIVER S-9, AROCLOR 1254 (10%), Method: DESICCATOR) “inactive; negative”; (Test System: AMES SALMONELLA TYPHIMURIUM, Strain/Indicator: TA1535, Metabolic Activation: RAT, LIVER, S-9, SODIUM PHENOBARBITAL AND 5,6-BENZOFLAVONE, Method: PREINCUBATION) “inactive; negative”; (Test System: AMES SALMONELLA TYPHIMURIUM, Strain/Indicator: TA1537, Metabolic Activation: NONE, Method: DESICCATOR) “inactive; negative”; (Test System: AMES SALMONELLA TYPHIMURIUM, Strain/Indicator: TA1537, Metabolic Activation: NONE, Method: PREINCUBATION) “inactive; negative”. In addition, the mutagenic call was “inactive; negative” (Test System: AMES SALMONELLA TYPHIMURIUM, Strain/Indicator: TA1537, Metabolic Activation: RAT LIVER S-9, AROCLOR 1254 (10%), Method: DESICCATOR); “inactive; negative” (Test System: AMES SALMONELLA TYPHIMURIUM, Strain/Indicator: TA1537, Metabolic Activation: RAT, LIVER, S-9, SODIUM PHENOBARBITAL AND 5,6-BENZOFLAVONE, Method: PREINCUBATION); “inactive; negative” (Test System: CHINESE HAMSTER OVARY CELLS, Strain/Indicator: CHO/HGPRT/6-THIOGUANINE, Metabolic Activation: NONE, Method: DESICCATOR); “inactive; negative” (Test System: CHINESE HAMSTER OVARY CELLS, Strain/Indicator: CHO/HGPRT/6-THIOGUANINE, Metabolic Activation: RAT LIVER S-9, AROCLOR 1254 (10%), Method: DESICCATOR); “inactive; negative” (Test System: E. COLI, Strain/Indicator: WP2UVRA/PKM101, Metabolic Activation: NONE, Method: PREINCUBATION); “inactive; negative” (Test System: E. COLI, Strain/Indicator: WP2UVRA/PKM101, Metabolic Activation: RAT, LIVER, S-9, SODIUM PHENOBARBITAL AND 5,6-BENZOFLAVONE, Method: PREINCUBATION). Further, the mutagenic call is, setting by setting: (Test System: E. COLI, Strain/Indicator: WP2UVRA, Metabolic Activation: NONE, Method: PREINCUBATION) “inactive; negative”; (Test System: E. COLI, Strain/Indicator: WP2UVRA, Metabolic Activation: RAT, LIVER, S-9, SODIUM PHENOBARBITAL AND 5,6-BENZOFLAVONE, Method: PREINCUBATION) “inactive; negative”.

Take `OC[C@@H](O)[C@@H](O)[C@H](O)[C@H](O)CO`: the mutagenic call reads like this: (End Point: IN VITRO CHROMOSOMAL ABERRATIONS, Test System: CHO CELLS, Metabolic Activation: NONE) “inactive; negative”; (End Point: IN VITRO CHROMOSOMAL ABERRATIONS, Test System: CHO CELLS, Metabolic Activation: RAT, LIVER, S-9, AROCLOR 1254) “inactive; negative”; (Test System: AMES SALMONELLA TYPHIMURIUM, Strain/Indicator: TA97, Metabolic Activation: NONE, Method: PREINCUBATION) “inactive; negative”; (Test System: AMES SALMONELLA TYPHIMURIUM, Strain/Indicator: TA97, Metabolic Activation: S-9, Method: PREINCUBATION) “inactive; negative”; (Test System: AMES SALMONELLA TYPHIMURIUM, Strain/Indicator: TA98, Metabolic Activation: NONE, Method: STANDARD PLATE) “inactive; negative”; (Test System: AMES SALMONELLA TYPHIMURIUM, Strain/Indicator: TA98, Metabolic Activation: RAT, LIVER, S-9, AROCLOR 1254, Method: STANDARD PLATE) “inactive; negative”. In addition, the mutagenic call is, setting by setting: under setting [4], “inactive; negative”; (Test System: AMES SALMONELLA TYPHIMURIUM, Strain/Indicator: TA100, Metabolic Activation: RAT, LIVER, S-9, AROCLOR 1254, Method: STANDARD PLATE) “inactive; negative”; under setting [3], “inactive; negative”; (Test System: AMES SALMONELLA TYPHIMURIUM, Strain/Indicator: TA102, Metabolic Activation: S-9, Method: PREINCUBATION) “inactive; negative”; (Test System: AMES SALMONELLA TYPHIMURIUM, Strain/Indicator: TA1535, Metabolic Activation: NONE, Method: STANDARD PLATE) “inactive; negative”; (Test System: AMES SALMONELLA TYPHIMURIUM, Strain/Indicator: TA1535, Metabolic Activation: RAT, LIVER, S-9, AROCLOR 1254, Method: STANDARD PLATE) “inactive; negative”. The mutagenic call (Test System: AMES SALMONELLA TYPHIMURIUM, Strain/Indicator: TA1537, Metabolic Activation: NONE, Method: STANDARD PLATE) is “inactive; negative”; the mutagenic call (Test System: AMES SALMONELLA TYPHIMURIUM, Strain/Indicator: TA1537, Metabolic Activation: RAT, LIVER, S-9, AROCLOR 1254, Method: STANDARD PLATE) is “inactive; negative”; the mutagenic call (Test System: AMES SALMONELLA TYPHIMURIUM, Strain/Indicator: TA1538, Metabolic Activation: NONE, Method: STANDARD PLATE) was “inactive; negative”; the mutagenic call (Test System: AMES SALMONELLA TYPHIMURIUM, Strain/Indicator: TA1538, Metabolic Activation: RAT, LIVER, S-9, AROCLOR 1254, Method: STANDARD PLATE) is “inactive; negative”; the mutagenic call (Test System: E. COLI, Strain/Indicator: WP2, Metabolic Activation: NONE, Method: STANDARD PLATE) is “inactive; negative”; the mutagenic call (Test System: E. COLI, Strain/Indicator: WP2, Metabolic Activation: RAT, LIVER, S-9, AROCLOR 1254, Method: STANDARD PLATE) was “inactive; negative”.

As to `Clc1ccc(C(Cl)(Cl)Cl)c(Cl)c1`, the mutagenic call reads like this: (Test System: AMES SALMONELLA TYPHIMURIUM, Strain/Indicator: TA98, Metabolic Activation: HAMSTER, LIVER, S-9, AROCLOR 1254 (30%), Method: PREINCUBATION) “active; positive”; under setting [1], “inactive; negative”; (Test System: AMES SALMONELLA TYPHIMURIUM, Strain/Indicator: TA98, Metabolic Activation: RAT, LIVER, S-9, AROCLOR 1254 (30%), Method: PREINCUBATION) “active; positive”; (Test System: AMES SALMONELLA TYPHIMURIUM, Strain/Indicator: TA100, Metabolic Activation: HAMSTER, LIVER, S-9, AROCLOR 1254 (30%), Method: PREINCUBATION) “active; positive”; under setting [2], “inactive; negative”; (Test System: AMES SALMONELLA TYPHIMURIUM, Strain/Indicator: TA100, Metabolic Activation: RAT, LIVER, S-9, AROCLOR 1254 (30%), Method: PREINCUBATION) “active; positive”.

Regarding `O=S(=O)(Cc1ccccc1)N1[C@@H]2c3ccccc3-c3ccccc3[C@@H]21` (stereo partly specified), the mutagenic call under setting [4] is “active; positive”.

The record behind these values is PubChem BioAssay AID1259407 (Chemical Carcinogenesis Research Information System (CCRIS), 2018).
